# Measurements: article PMC9412414, “A Study on Repositioning Nalidixic Acid via Lanthanide Complexation: Synthesis, Characterization, Cytotoxicity and DNA/Protein Binding Studies” (Pharmaceuticals, 2022)
# Assays:
# [1] = tested on: LoVo (human colorectal adenocarcinoma) cell line; test: MTS cytotoxicity assay, LoVo cell line; format: cell-based; conditions: 48 h of incubation
# [2] = tested on: HUVEC (human umbilical vein endothelial cells); test: MTS cytotoxicity assay, HUVEC normal cell line; format: cell-based; conditions: 24 h of incubation
# [3] = tested on: EB–DNA system (CT-DNA); test: Competitive binding assay with ethidium bromide (EB) through fluorescence spectroscopy; parameters: species or system calf; conditions: EB 2 µM, CT-DNA 10 µM, compound 0–40 µM
# [4] = target: T1, apotransferrin (apo-Tf) (Homo sapiens, UniProt P02787); test: Apo-Tf fluorescence quenching binding study
# T1 construct: purchased Sigma-Aldrich Chemical Co. (Schnelldorf, Germany)
# T1 sequence (P02787 20-698): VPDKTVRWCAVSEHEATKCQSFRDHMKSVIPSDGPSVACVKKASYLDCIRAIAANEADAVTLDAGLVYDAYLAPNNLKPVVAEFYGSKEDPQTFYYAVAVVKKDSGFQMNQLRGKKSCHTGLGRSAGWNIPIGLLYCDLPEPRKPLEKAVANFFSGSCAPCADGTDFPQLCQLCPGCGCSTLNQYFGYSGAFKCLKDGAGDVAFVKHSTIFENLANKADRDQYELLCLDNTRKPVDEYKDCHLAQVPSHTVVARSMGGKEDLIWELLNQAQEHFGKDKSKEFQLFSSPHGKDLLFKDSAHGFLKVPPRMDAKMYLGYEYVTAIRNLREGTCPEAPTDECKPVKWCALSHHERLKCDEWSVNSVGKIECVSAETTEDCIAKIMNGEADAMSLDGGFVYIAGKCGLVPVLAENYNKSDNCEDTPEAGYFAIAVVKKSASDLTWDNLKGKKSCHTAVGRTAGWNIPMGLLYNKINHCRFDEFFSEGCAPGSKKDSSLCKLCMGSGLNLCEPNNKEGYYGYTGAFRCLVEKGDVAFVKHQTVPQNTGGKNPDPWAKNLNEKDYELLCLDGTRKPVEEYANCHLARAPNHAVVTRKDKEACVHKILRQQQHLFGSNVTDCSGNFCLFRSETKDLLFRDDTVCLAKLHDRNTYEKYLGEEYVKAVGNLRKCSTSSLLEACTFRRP
# [5] = target: T2, human serum albumin (HSA) (Homo sapiens, UniProt P02768); test: HSA fluorescence quenching binding study; conditions: 298 K
# T2 construct: purchased Sigma-Aldrich Chemical Co. (Schnelldorf, Germany)
# T2 sequence (P02768 25-609): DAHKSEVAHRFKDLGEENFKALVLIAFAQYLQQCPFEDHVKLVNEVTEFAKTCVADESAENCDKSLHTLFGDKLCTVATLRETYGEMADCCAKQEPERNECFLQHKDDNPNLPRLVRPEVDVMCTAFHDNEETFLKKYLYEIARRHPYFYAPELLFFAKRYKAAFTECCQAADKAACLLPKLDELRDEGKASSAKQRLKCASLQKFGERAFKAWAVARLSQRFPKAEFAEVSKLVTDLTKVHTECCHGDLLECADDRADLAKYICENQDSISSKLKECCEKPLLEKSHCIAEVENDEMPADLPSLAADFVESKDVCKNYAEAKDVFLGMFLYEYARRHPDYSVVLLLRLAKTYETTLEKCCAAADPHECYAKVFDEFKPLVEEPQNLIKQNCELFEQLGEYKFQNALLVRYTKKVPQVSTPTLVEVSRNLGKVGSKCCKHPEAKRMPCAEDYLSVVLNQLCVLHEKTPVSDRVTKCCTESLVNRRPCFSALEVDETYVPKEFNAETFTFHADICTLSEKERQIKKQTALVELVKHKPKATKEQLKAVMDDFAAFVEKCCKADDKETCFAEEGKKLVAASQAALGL
substance,measurement,setting,value
Tb(C12H11N2O3)3(H2O)2·1.5H2O [Tb(nal)3],IC50,[1],25.6 ± 6.97 µM
same,IC50,[2],96.2 ± 48.8 µM
same,EB Displacement Assay K50 (half maximum binding constant),[3],31.96 ± 10.16 µM
same,"KSV, Stern–Volmer quenching constant (EB–DNA)",[3],8.35 ± 0.11 M^−1 (×10^3)
same,"Ka (association binding constant), Apo-Tf","[4]; apo-Tf 1 µM, 298 K",(1.63 ± 0.42) × 10^4 M^−1
same,"n1 (Number of Binding Sites), Apo-Tf","[4]; apo-Tf 1 µM, 298 K",0.83 ± 0.02
same,Kd,"[4]; apo-Tf 1 µM, 298 K, read-out: Kd (dissociation constant), Apo-Tf",5.76 ± 2.6 µM
same,"fa (fraction of fluorophore accessible to the quencher), Apo-Tf","[4]; apo-Tf 1 µM, compound 0–8 µM, 298 K",0.68 ± 0.01
same,"Ksv* (Stern–Volmer quenching constant), Apo-Tf","[4]; apo-Tf 1 µM, compound 0–8 µM, Tris-HCl pH 7.4, 298 K",(2.70 ± 0.11) × 10^5 M^−1
same,"Kq (bimolecular quenching constant), Apo-Tf","[4]; from Ksv* with τ0 = 10^−8 s, 298 K",2.7e+13 M⁻¹ s⁻¹
same,"Ka (association binding constant), HSA",[5]; HSA 2.5 µM,(31.26 ± 9.66) × 10^5 M^−1
same,"n1 (Number of Binding Sites), HSA",[5]; HSA 2.5 µM,1.18 ± 0.02
same,"n2 (Hill Coefficient), HSA",[5]; HSA 2.5 µM,0.89 ± 0.35
same,Kd,"[5]; HSA 2.5 µM, read-out: Kd (dissociation constant), HSA",4.61 ± 1.67 µM
same,"fa (fraction of fluorophore accessible to the quencher), HSA","[5]; HSA 2.5 µM, compound 0–8 µM",1.13 ± 0.02
same,"Kq (bimolecular quenching constant), HSA",[5]; from Ksv* with τ0 = 10^−8 s,2.39e+13 M⁻¹ s⁻¹
